Measurements as given in patent US6758840B2, “Drug delivery device” (Metris Therapeutics Limited, priority 2000, dated 2004).

What was measured:
[1] = Comparison of uptake of mefenamic acid from device and from slurry (Example 5); assay type: in vivo; conditions: Rhesus monkeys
From the text: A comparison was made between the uptake of mefenamic acid in Rhesus monkeys where the mefenamic acid was introduced intra-vaginally using the devices of Example 3 and the uptake of mefenamic acid in Rhesus monkeys where a slurry comprising mefenamic acid was introduced intra-vaginally.
The slurry of mefenamic acid applied to a Rhesus monkey comprised a total amount of mefenamic acid that was greater than ten times that applied to a Rhesus monkey using the device of Example 3.
(§1) Blood samples were taken from the Rhesus monkeys and the samples were assayed as described in Example 3, at the time intervals shown in the graph of FIG. 19. The results of this study are shown in the graph of FIG. 19, which indicates the concentration in ng/ml of mefenamic acid found in the plasma of the Rhesus monkeys with time following insertion of the devices (circles) and slurry (triangles) of this example.

[2] = Plasma mefenamic acid after intra-vaginal device with wax layer (Example 3); assay type: in vivo, Rhesus monkeys; conditions: intra-vaginal tampon device, wax fluid-impermeable layer, mefenamic acid dusted on; Rhesus monkey plasma
From the text: Further devices according to the present invention were made and used to deliver a pharmaceutical agent intra-vaginally in Rhesus monkeys.
(§2) Materials used in the manufacture of commercial tampons for human use were reconstituted to produce tampons with dimensions 7 mm×25 mm or 5 mm×25 mm. Depending on the weight of an individual Rhesus monkey, one of these sizes of tampon was able to be conveniently inserted into the vagina of the Rhesus monkey.
Wax material was used to create a fluid-impermeable layer of the tampons by warming the wax layer to make it adhere to the body of the tampon. Once the wax layer had been applied, mefenamic acid was “dusted” onto the device while the device was warmed to aid adhesion between the wax and the mefenamic acid. Non-adherent mefenamic acid was removed.
(§3) Rhesus monkeys were anaesthetised with ketamine hydrochloride and one of the above-mentioned tampon devices was inserted into the vagina of each monkey. A 19 gauge catheter was inserted into the saphenous vein of each monkey. This catheter was used to collect blood samples during the course of the study. The monkeys were returned to their cages when appropriate.
(§4) Blood samples were taken at intervals and plasma was prepared and frozen. After the completion of the study, all plasma samples were assayed for the concentration of mefenamic acid.

[3] = Plasma mefenamic acid after intra-vaginal device with adhesive tape layer (Example 2); assay type: in vivo, Rhesus monkeys; conditions: intra-vaginal tampon device, double-sided adhesive tape as fluid-impermeable layer, mefenamic acid powder dusted on; Rhesus monkey plasma
From the text: Devices according to the present invention were made and used to deliver a pharmaceutical agent intra-vaginally in Rhesus monkeys.
as §2
A strip of double-sided adhesive tape was secured to the surface of the tampons to function as the fluid-impermeable layer. Mefenamic acid powder was “dusted” onto the surface of the tape and non-adherent mefenamic acid was removed.
as §3, §4

[4] = Plasma mefenamic acid after intra-vaginal wax-layer device, eight monkeys (Example 4); assay type: in vivo; conditions: average 6.4 mg mefenamic acid per device, mean of eight Rhesus monkeys
Protocol: Eight devices were prepared as described in Example 3. The devices were assayed and the average amount of mefenamic found to be in each device was 6.4 mg. Each device was inserted into the vagina of one of eight Rhesus monkeys. The monkeys all weighed in the range 7.27 kg to 8.95 kg.
as §1, with “18.” for “19.”, “18,” for “19,”, “devices” for “devices (circles) and slurry (triangles)”, “example. Each point of the graph of FIG. 18 represents the mean value of the concentration of the eight monkeys.” for “example.”

Cc1cccc(Nc2ccccc2C(=O)O)c1C [mefenamic acid]
uptake of mefenamic acid (plasma concentration, FIG. 19) ([1]; introduced intra-vaginally as slurry, total amount greater than ten times that of the device): only limited uptake of mefenamic acid by the monkeys was achieved
uptake of mefenamic acid (plasma concentration, FIG. 19) ([1]; introduced intra-vaginally using the device of Example 3 (wax layer)): transportation of mefenamic acid across the vaginal mucosa and systemic circulation of mefenamic acid in the Rhesus monkeys was achieved
transport across the vaginal mucosa / systemic circulation (plasma concentration, FIG. 17) [2]: mefenamic acid was transported across the vaginal mucosa and systemic circulation of mefenamic acid was achieved
transport across the vaginal mucosa / systemic circulation (plasma concentration, FIG. 16) [3]: mefenamic acid was transported across the vaginal mucosa and systemic circulation of mefenamic acid was achieved
transport across the vaginal mucosa / systemic circulation (plasma concentration, FIG. 18) [4]: mefenamic acid was transported across the vaginal mucosa and systemic circulation of mefenamic acid was achieved
